This is an account of results in patent US9029063B2, “Negative-working lithographic printing plate precursors” (Eastman Kodak Company, priority 2011, dated 2015).

Read-outs that look alike come from different tables or passages of the source.

This data set in a line: Solubility in Dowanol PM (2-methoxy propanol). The data set is classed as physicochemical. The settings on record: 20 °C, organic solvent or mixture. From the text:
The imagable layers comprise a radiation-sensitive imaging composition that includes one or more infrared radiation absorbing dyes. […] 2-Methoxy propanol (or propylene glycol methyl ether) is available from various commercial sources, and for example, can be obtained in Dowanol® PM. In some embodiments, the ion exchange products formed between the infrared radiation absorbing cyanine cation and any counter anion from any other components, for example, a free radical initiator, in the imagable layer.
Dowanol® PM is propylene glycol methyl ether that is available from Dow Chemical.

Setting [1] is: Dowanol PM (2-methoxy propanol), Table I, read-out: S1, Solubility of IR Dye in Dowanol PM.
Setting [2] is: Dowanol PM (2-methoxy propanol), Table II, read-out: S1, solubility of IR Dye in Dowanol PM.
Setting [3] is: Dowanol PM (2-methoxy propanol), Table IV, read-out: S1, solubility of IR Dye in Dowanol PM.
Where [4] appears, read: tetraphenyl borate salt of the dye cation, Dowanol PM, Table II, read-out: S2, solubility of the tetraphenyl borate salt of the IR cation in Dowanol PM.
Setting [5] is: tetraphenyl borate salt of the dye cation, Dowanol PM, Table IV, read-out: S2, solubility of the tetraphenyl borate salt of the IR cation in Dowanol PM.
Setting [6] is: tetraphenylborate salt of the dye cation, Dowanol PM, Table I, read-out: S2, Solubility of the tetraphenylborate salt of the IR cation in Dowanol PM.

As for `CN1/C(=C/C=C2\CCCC(/C=C/C3=[N+](C)c4ccccc4C3(C)C)=C2Sc2nnnn2-c2ccccc2)C(C)(C)c2ccccc21` [compound 1], the solubility (as a rule, how much of the substance goes into solution per volume) under setting [1] was found to be 192 mg/mL; the solubility under setting [2] turned out to be 192 mg/mL; the solubility under setting [3] is 192 mg/mL; the solubility under setting [4] is 1.4 mg/mL; the solubility under setting [5] was found to be 1.4 mg/mL; the solubility under setting [6] came to 1.4 mg/mL.
`C=Cc1ccc(CSc2nnc(SC3=C(/C=C/C4=[N+](C)c5ccccc5C4(C)C)CCC/C3=C\C=C3\N(C)c4ccccc4C3(C)C)s2)cc1` [compound 2]: the solubility under setting [2] is 128 mg/mL; the solubility under setting [3] was 128 mg/mL; the solubility under setting [4] was 4.8 mg/mL; the solubility under setting [5] was determined as 4.8 mg/mL; the solubility under setting [6] came to 4.8 mg/mL.
Turning to `CN1/C(=C/C=C2\CCCC(/C=C/C3=[N+](C)c4ccccc4C3(C)C)=C2Sc2ccc(C(C)(C)C)cc2)C(C)(C)c2ccccc21` [compound 4], the solubility came out at 97 mg/mL under setting [1] and 21 mg/mL under setting [6].
